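Grown in 96-well plates, cells were treated for 48 hours with each compound at five concentrations. Insufficient inhibition: endpoint recorded as highest concentration tested. GI50 = concentration required for 50% inhibition of growth.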 The source made the active and inactive calls. No stated cut-off is given here; in the data, active = GI50 up to about 1.1 µM and inactive = higher.
Columns and labels:
Test in all cases: NCI anticancer screen, dose series, 48 h
NCI-H460 = tested on: NCI-H460
HCC 2998 = tested on: HCC 2998
DU-145 = tested on: DU-145
SNB-19 = tested on: SNB-19
HL-60 = tested on: HL-60
IGROV-1 = tested on: IGROV-1
Malme-3M = tested on: Malme-3M
MDA-MB-231 = tested on: MDA-MB-231
SW-620 = tested on: SW-620
A549 = tested on: A549
HOP-62 = tested on: HOP-62
SF-295 = tested on: SF-295
SN12C = tested on: SN12C
PC-3 = tested on: PC-3
NCI-H522 = tested on: NCI-H522
M14 = tested on: M14
MDA-MB-435 = tested on: MDA-MB-435
NCI-H23 = tested on: NCI-H23
CAKI-1 = tested on: CAKI-1
SNB-75 = tested on: SNB-75

Measured: GI50

COC(=O)c1c(C)c2c(c(C)c1O)OC(=O)c1c(C)cc(O)c(C=O)c1O2
inactive: NCI-H460 > 100 µM | HCC 2998 > 100 µM | DU-145 > 100 µM | SNB-19 > 100 µM | HL-60 > 100 µM | IGROV-1 69.7 µM | Malme-3M > 100 µM | MDA-MB-231 > 100 µM | SW-620 > 100 µM | A549 > 100 µM | HOP-62 > 100 µM | SF-295 > 100 µM | SN12C > 100 µM | PC-3 > 100 µM | NCI-H522 > 100 µM | M14 > 100 µM | MDA-MB-435 > 100 µM | NCI-H23 > 100 µM

CCN(CC)CCn1nc(N)c2nc3cc(Cl)ccc3nc21
inactive: NCI-H460 34.3 µM | HCC 2998 > 100 µM | DU-145 > 100 µM | CAKI-1 51.4 µM | SNB-19 53.5 µM | HL-60 61.4 µM | IGROV-1 16.3 µM | Malme-3M 61.7 µM | MDA-MB-231 > 100 µM | SW-620 63 µM | A549 49.8 µM | HOP-62 > 100 µM | SF-295 54.2 µM | SN12C 45.1 µM | PC-3 58.1 µM | NCI-H522 31.8 µM | M14 37.8 µM | MDA-MB-435 97.9 µM | NCI-H23 91.6 µM

O=C1C=CC(=O)c2c1ccc1c3ccccc3n(Cc3ccc([N+](=O)[O-])cc3)c21
inactive: NCI-H460 > 100 µM | HCC 2998 > 100 µM | DU-145 > 100 µM | CAKI-1 > 100 µM | SNB-19 > 100 µM | HL-60 14 µM | IGROV-1 > 100 µM | MDA-MB-231 > 100 µM | SW-620 38.7 µM | A549 > 100 µM | HOP-62 > 100 µM | SF-295 > 100 µM | SN12C > 100 µM | SNB-75 > 100 µM | PC-3 > 100 µM | NCI-H522 26.6 µM | M14 > 100 µM | MDA-MB-435 > 100 µM | NCI-H23 > 100 µM

CCc1ccc2c(c1)/C(=C1/Nc3ccccc3/C1=N/O)C(=O)N2
inactive: NCI-H460 5.11 µM | HCC 2998 3.3 µM | DU-145 6.49 µM | CAKI-1 2.24 µM | SNB-19 14.7 µM | IGROV-1 5.08 µM | Malme-3M 3.72 µM | MDA-MB-231 20 µM | SW-620 4.53 µM | A549 6.37 µM | HOP-62 10.6 µM | SF-295 6.25 µM | SN12C 5.61 µM | SNB-75 11.8 µM | PC-3 6.85 µM | NCI-H522 3.43 µM | M14 12.6 µM | MDA-MB-435 7.55 µM | NCI-H23 5.18 µM

COc1c(-c2ccc(O)c(O)c2)oc2c(O)c(O)cc(O)c2c1=O
inactive: NCI-H460 55.6 µM | HCC 2998 > 100 µM | DU-145 > 100 µM | CAKI-1 64.6 µM | SNB-19 > 100 µM | HL-60 > 10 µM | IGROV-1 24.7 µM | Malme-3M > 100 µM | MDA-MB-231 > 100 µM | SW-620 22.5 µM | A549 69.2 µM | HOP-62 26.7 µM | SF-295 39.1 µM | SN12C 16.9 µM | PC-3 > 100 µM | NCI-H522 32.1 µM | M14 > 10 µM | MDA-MB-435 31 µM | NCI-H23 60.3 µM

CCCCNS(=O)(=O)c1n[nH]c(=O)[nH]c1=O
inactive: NCI-H460 > 100 µM | DU-145 > 100 µM | CAKI-1 > 100 µM | SNB-19 > 100 µM | HL-60 > 100 µM | IGROV-1 > 100 µM | Malme-3M > 100 µM | MDA-MB-231 > 100 µM | SW-620 > 100 µM | A549 > 100 µM | HOP-62 23.5 µM | SF-295 16.9 µM | SN12C > 100 µM | SNB-75 82.6 µM | PC-3 > 100 µM | NCI-H522 > 100 µM | M14 > 100 µM | MDA-MB-435 > 100 µM | NCI-H23 > 100 µM

Cc1ccc(/C=N\NC(=O)c2ccncc2)s1
inactive: NCI-H460 > 100 µM | HCC 2998 > 100 µM | DU-145 > 100 µM | CAKI-1 > 100 µM | SNB-19 > 100 µM | HL-60 > 100 µM | IGROV-1 > 100 µM | Malme-3M > 100 µM | MDA-MB-231 > 100 µM | SW-620 > 100 µM | A549 > 100 µM | HOP-62 > 100 µM | SF-295 > 100 µM | SN12C > 100 µM | PC-3 > 100 µM | NCI-H522 > 100 µM | M14 > 100 µM | MDA-MB-435 > 100 µM | NCI-H23 > 100 µM

CC1OC(n2cc(F)c(=O)[nH]c2=O)C(O[Si](C)(C)C(C)(C)C)C1O[Si](C)(C)C(C)(C)C (configuration not stated)
inactive: HCC 2998 13.4 µM | DU-145 13.6 µM | CAKI-1 13.6 µM | SNB-19 14.7 µM | HL-60 5.93 µM | IGROV-1 13.3 µM | Malme-3M 14.9 µM | MDA-MB-231 5.78 µM | SW-620 15 µM | A549 15.8 µM | HOP-62 21.5 µM | SF-295 11.5 µM | SN12C 12.4 µM | SNB-75 15.5 µM | PC-3 11 µM | NCI-H522 4.34 µM | M14 20.2 µM | MDA-MB-435 17.9 µM | NCI-H23 10.6 µM

CC1Cc2cc(O)c(O)cc2-c2cc(O)c(O)cc2CC1C (configuration not stated)
inactive: NCI-H460 20.4 µM | HCC 2998 17.4 µM | DU-145 36.3 µM | CAKI-1 17.8 µM | SNB-19 26.5 µM | IGROV-1 20.4 µM | Malme-3M 5.62 µM | MDA-MB-231 6.71 µM | SW-620 20.5 µM | A549 31.6 µM | HOP-62 17.9 µM | SF-295 4.41 µM | SN12C 20.9 µM | SNB-75 > 100 µM | PC-3 19.3 µM | NCI-H522 9.57 µM | M14 11.5 µM | MDA-MB-435 3.16 µM | NCI-H23 14.8 µM

CN(C)c1ccc(/C=N/c2ccc(-c3nc4ccccc4[nH]3)cc2)cc1
inactive: NCI-H460 51.8 µM | DU-145 65.8 µM | CAKI-1 > 100 µM | SNB-19 40 µM | HL-60 24.7 µM | IGROV-1 47.1 µM | Malme-3M 24.3 µM | MDA-MB-231 32.8 µM | SW-620 32.4 µM | A549 > 100 µM | HOP-62 > 100 µM | SF-295 46.6 µM | SN12C 40.6 µM | SNB-75 33.7 µM | PC-3 53.6 µM | NCI-H522 56 µM | M14 > 100 µM | MDA-MB-435 > 100 µM | NCI-H23 > 100 µM

Cc1ccc(S(=O)(=O)NC(=N)N(C)N=O)cc1
inactive: NCI-H460 18.9 µM | DU-145 > 100 µM | CAKI-1 > 100 µM | SNB-19 > 100 µM | HL-60 > 100 µM | IGROV-1 > 100 µM | Malme-3M > 100 µM | MDA-MB-231 > 100 µM | SW-620 > 100 µM | A549 19.1 µM | HOP-62 > 100 µM | SF-295 > 100 µM | SN12C > 100 µM | SNB-75 38.2 µM | PC-3 > 100 µM | NCI-H522 > 100 µM | M14 > 100 µM | MDA-MB-435 > 100 µM | NCI-H23 > 100 µM

O=C1CSC(=S)N1c1ccco1
inactive: NCI-H460 > 100 µM | DU-145 > 100 µM | CAKI-1 > 100 µM | SNB-19 > 100 µM | HL-60 32.6 µM | IGROV-1 > 100 µM | Malme-3M > 100 µM | MDA-MB-231 31.8 µM | SW-620 41.1 µM | A549 > 100 µM | HOP-62 > 100 µM | SF-295 > 100 µM | SN12C 57.1 µM | PC-3 71.3 µM | NCI-H522 23.4 µM | M14 44.2 µM | MDA-MB-435 24.2 µM | NCI-H23 > 100 µM

N=C(N)SCCON1C(=O)c2ccccc2C1=O
inactive: NCI-H460 > 100 µM | DU-145 > 100 µM | CAKI-1 > 100 µM | SNB-19 > 100 µM | HL-60 > 100 µM | IGROV-1 > 100 µM | Malme-3M > 100 µM | MDA-MB-231 > 100 µM | SW-620 > 100 µM | A549 > 100 µM | HOP-62 > 100 µM | SF-295 > 100 µM | SN12C > 100 µM | SNB-75 > 100 µM | PC-3 > 100 µM | NCI-H522 > 100 µM | M14 > 100 µM | MDA-MB-435 > 100 µM | NCI-H23 > 100 µM

NC1=NC(=O)[C@H](Cc2c[nH]c3ccccc23)N1C(=O)OCc1ccccc1
inactive: NCI-H460 93.8 µM | HCC 2998 > 100 µM | DU-145 93.8 µM | CAKI-1 > 100 µM | SNB-19 > 100 µM | HL-60 31.7 µM | IGROV-1 77.6 µM | Malme-3M 68.7 µM | MDA-MB-231 > 100 µM | SW-620 > 100 µM | HOP-62 > 100 µM | SF-295 75.3 µM | SN12C 91 µM | SNB-75 50.9 µM | PC-3 46 µM | NCI-H522 37 µM | MDA-MB-435 56.9 µM | NCI-H23 38.1 µM

CC(C)(Sc1cc(C(C)(C)C)c(O)c(C(C)(C)C)c1)Sc1cc(C(C)(C)C)c(O)c(C(C)(C)C)c1 [PROBUCOL]
inactive: NCI-H460 > 100 µM | DU-145 > 100 µM | CAKI-1 > 100 µM | SNB-19 > 100 µM | HL-60 1.49 µM | IGROV-1 > 100 µM | Malme-3M > 100 µM | MDA-MB-231 > 100 µM | SW-620 > 100 µM | A549 > 100 µM | HOP-62 > 100 µM | SF-295 > 100 µM | SN12C > 100 µM | SNB-75 > 100 µM | PC-3 > 100 µM | NCI-H522 > 100 µM | M14 > 100 µM | MDA-MB-435 > 100 µM | NCI-H23 > 100 µM
